Measurements from PMC8157322, “Gd(III)–Pt(IV) theranostic contrast agents for tandem MR imaging and chemotherapy” (Chemical Science, 2020).

Legend:
[1] = Relaxivity after incubation in 5 mM GSH in PBS; assay type: physicochemical; details: 1.41 T, PBS with 5 mM glutathione, 37 °C
Protocol: This is possibly due to an increase in the rotational correlation time (τR) or a change in the inner sphere hydration number (q) of Gd(III). The differences in relaxivity of GP1 and GP2 compared to 1 offers the possibility of monitoring reduction of the agents by MR at both high and low field strength. To test this, GP1, GP2, and 1 were incubated in 5 mM GSH in PBS and the relaxivity was measured (see ESI ^†). The relaxivity of each converged to the same value (r1 of 4.4, 4.5, and 4.6 mM^−1 s^−1 for 1, GP1, and GP2 respectively), indicating the same Gd(III) species was formed after reduction. The significant change in r1 upon reduction of GP1 and GP2 theoretically could be used to monitor intracellular reduction by MR. However, further testing needs to be done to determine if these agents are suitable for this application.
Fig. S2 Graph of r1 of (A) GP1 measured at 1.41 T (B) GP1 measured at 7 T (C) GP2 measured at 1.41 T
(D) GP2 measured at 7 T (E) 1 measured at 1.41 T (F) 1 measured at 7 T. All measurements were taken
in PBS at 37 °C (G) 1 measured at 1.41 T with 5 mM GSH (H) GP1 measured at 1.41 T with 5 mM GSH
and (I) GP2 measured at 1.41 T with 5 mM GSH.
Table S1. r1 of GP1, GP2, and 1 in PBS with 5 mM glutathione at 37 °C
GP1 (5 mM GSH) GP2 (5 mM GSH) 1 (5 mM GSH)

A2780 cells [2] = assay: MR imaging of cell pellets at 7 T; assay type: cell-based; details: A2780, 7 T, 6 h incubation; cisplatin 7.5 μM, 1 100 μM, GP1 30 μM, GP2 60 μM
HeLa cells = assay: Cell viability assay (CellTiter-Glo 2.0); assay type: cell-based; details: 48 h incubation
Protocol: (§1) To assess the cytotoxicity of GP1 and GP2in vitro, cell viability assays were performed to determine the IC50 concentrations in three cancer cell lines (A2780, HeLa, and MCF-7). Table 2 summarizes the IC50 concentrations of both agents compared to those of cisplatin and carboplatin. […] For all cell lines, GP1 was less toxic than cisplatin but followed the same trend of highest toxicity in A2780 cells and least toxic in MCF-7 cells. GP1 releases cisplatin intracellularly, therefore the apparent difference in toxicity of the two is likely due to decreased cell permeability of GP1 caused by the Gd(III) complex. However, because GP1 is inert in the extracellular matrix, higher doses can be safely administered to account for the decreased cell permeability. […]
(§2) lines were grown in a humidified incubator at 37 °C and 5% CO2 and were harvested using 0.25% TrypLE. Cells were grown for 24 hours after plating before each experiment. All solutions were filtered through […] sterile filters before use.
(§3) Viability Assays. A2780, HeLa, and MCF-7 cells were plated at a density of 3,000 cells per well (100 µL) in an opaque white 96-well plate. Cells were dosed with 100 µL of solutions of GP1, GP2, cisplatin, or carboplatin in MEM and incubated for 48 hours (GP1 or cisplatin) or 72 hours (GP2 or carboplatin). After incubation, 50 µL CellTiter-Glo 2.0 (Promega, Madison, WI) was added to each well and the assay was carried out following the manufacturer’s protocol.
(§4) Luminescence of the wells was measured using a Synergy H1 microplate reader (BioTek, Winooski, VT). Viability was determined by comparing luminescence readings of the cells treated with agent to untreated control cells. […]

A2780 cells [3] = assay: Cell viability assay (CellTiter-Glo 2.0); assay type: cell-based; details: A2780, 48 h incubation
Protocol: as §1, §2, §3, §4

MCF-7 cells = assay: Cell viability assay (CellTiter-Glo 2.0); assay type: cell-based; details: MCF-7, 48 h incubation
Protocol: as §1, §2, §3, §4

[4] = Stability in aqueous media monitored by HPLC-MS; assay type: physicochemical
Protocol: To ensure both agents remain stable in aqueous media under various conditions, they were dissolved in PBS, two types of cell culture media (MEM and RPMI-1640), pH 5 H2O, and porcine live esterase (PLE) in PBS and monitored over time by HPLC-MS. […]
Stability of GP1 and GP2 in various aqueous media. Aliquots of GP1 and GP2 were prepared from a stock with known mass checked by ICP-MS. An aliquot of each was dissolved in H2O and analyzed by HPLC-MS using an Atlantis C18 column (4.6 × 250 mm, 5 μm) and the following method: MeCN held at 0% for 3 min followed by a 15 min ramp to 100% MeCN (GP1 retention time: 10.9 min, GP2 retention time: 11.6 min). Aliquots of both were additionally dissolved in PBS, MEM, RPMI-1640, pH 5 H2O, PBS with 10 units/mL porcine liver esterase, 5 mM glutathione, and 5 mM sodium ascorbate, incubated in a shaker at 37 °C, and were analyzed by HPLC-MS at different time points using the same method. At each time point, the area of the peak of GP1 or GP2 was determined by integration and compared to the area of the peaks in […]

r1 with 5 mM GSH [1]: 4.5 mM⁻¹ s⁻¹
IC50 (HeLa cells): 49.3 ± 1.3 µM
IC50 (A2780 cells [3]): 29.8 ± 2.5 µM
IC50 (MCF-7 cells): 113 ± 4 µM
Agent intact in MEM ([4]; MEM, 37 °C, at 48 hours): ≥ 92%
Stability in PBS ([4]; PBS, 37 °C, over 48 hours): completely stable
Agent reduced to Pt(II) in RPMI-1640 ([4]; RPMI-1640 (0.003 mM GSH), 37 °C, within 48 hours): 33%
Agent intact in RPMI-1640 ([4]; RPMI-1640, 37 °C, at 6 hours): ≥ 96%
Stability in pH 5 H2O ([4]; pH 5 H2O, 37 °C, over 48 hours): completely stable
Structure (SMILES): [NH2][Pt]([NH2])([OH])([Cl])([Cl])[O]C(=O)CCCCCN1CCN2CCN3CCN(CC1)CC(=O)[O][Gd]([O]C(=O)C2)[O]C(=O)C3 [GP1]
T1 of cell pellet (A2780 cells [2]): 1708 ± 27 ms
Δ R1 (increase in R1 vs untreated control) (A2780 cells [2]): 36%
